Counter-ions that a name gives are not always drawn.
What was measured:
[1] = tested on: HCT116; assay: efficacy (fitted maximal change in viability relative to DMSO control); higher = less cytotoxic (negative = loss of viability); conditions: 48 h
[2] = tested on: HCT116; assay: AC50 cell viability (CellTiter-Glo); higher = less potent; conditions: 48 h
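Wherever AC50 cell viability (CellTiter-Glo) is given: HCT116 colorectal carcinoma cells screened at five concentrations per compound, luminescent viability scaled between DMSO wells and empty wells on each plate, curves fitted per compound.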
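Wherever efficacy (fitted maximal change in viability relative to DMSO control) is given: Luminescence-based viability readout, five doses per compound, normalized against on-plate DMSO and empty-well controls, followed by dose-response curve fitting for every drug.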

| Compound | efficacy [1] | AC50 cell viability [2] |
| --- | --- | --- |
| CCCCCCNC(=O)N1\C=C(F)/C(=O)NC1=O [Carmofur] | -61.6% | 4.17 µM |
| CCNc1cc(NC2CCC(O)CC2)nc(Nc2ccc3c(ccn3Cc3ccccc3)c2)n1 (stereo not drawn) [Cdk4/6 Inhibitor IV] | -51.1% | 20.9 µM |
| COc1cc2c(Oc3ccc4[nH]c(C)cc4c3F)ncnc2cc1OCCCN1CCCC1 [Cediranib] | -111% | 14.8 µM |
| Cc1ccc(-c2cc(C(F)(F)F)nn2-c2ccc([S+](N)(=O)[O-])cc2)cc1 [Celecoxib] | -77.8% | 18.6 µM |
| C/C=C(\C)C(=O)N[C@@H](c1ccccc1)[C@@H](O)C(=O)O[C@H]1C[C@@]2(O)[C@@H](OC(=O)c3ccccc3)[C@@H]3[C@]4(OC(C)=O)CO[C@@H]4C[C@H](O)[C@@]3(C)C(=O)[C@H](OC(C)=O)C(=C1C)C2(C)C [Cephalomannine] | -63.5% | 0.0263 µM |
| Cc1cc(Nc2ncc(Cl)c(Nc3ccccc3[S+](=O)([O-])C(C)C)n2)c(OC(C)C)cc1C1CCNCC1 [Ceritinib] | -115% | 13.2 µM |
| C/C=C/C/C=C/CCC(=O)[C@H]1O[C@H]1C(N)=O [Cerulenin] | -80.2% | 16.6 µM |
| CNCCCOc1cc(F)c(-c2c(Cl)nc3ncnn3c2N[C@@H](C)C(F)(F)F)c(F)c1 [Cevipabulin] | -60.6% | 0.0525 µM |
| Nc1ccc(F)cc1NC(=O)c1ccc(CNC(=O)/C=C/c2cccnc2)cc1 [Chidamide] | -90.4% | 5.9 µM |
| N=C(NCCCCCCNC(=N)NC(=N)Nc1ccc(Cl)cc1)NC(=N)Nc1ccc(Cl)cc1 [Chlorhexidine] | -93.5% | 20.9 µM |
| Oc1c(Cl)cc(Cl)c2cccnc12 [Chloroxine] | -86.7% | 13.2 µM |
| OC1=CC2=C(C(=C1)O)C(=O)\C=C(/O2)C3=CC=CC=C3 [Chrysine] | -49.1% | 20.9 µM |
| CC(C)C(=O)OCC(=O)[C@@]12O[C@@H](O[C@@H]1C[C@H]3[C@@H]4CC\C5=C\C(=O)\C=C/[C@]5(C)[C@H]4[C@@H](O)C[C@]23C)C6CCCCC6 [Ciclesonide] | -78.4% | 20.9 µM |
| CC/1=C/C(=O)N(O)/C(=C1)C2CCCCC2 [Ciclopirox] | -89.1% | 3.72 µM |
| C[C@@H](NCCCc1cccc(C(F)(F)F)c1)c1cccc2ccccc12 [Cinacalcet hydrochloride] | -92.6% | 16.6 µM |
| Nc1nc(Cl)nc2c1ncn2[C@H]1C[C@H](O)[C@@H](CO)O1 [Cladribine] | -55.8% | 0.295 µM |
| Clc1ccc(Cn2c(CN3CCCC3)nc3ccccc32)cc1 [Clemizole hydrochloride] | -93.1% | 23.5 µM |
| CCN(CC)CCOc1ccc(/C(=C(\Cl)c2ccccc2)c2ccccc2)cc1 [Clomifene citrate] | -90.7% | 8.33 µM |
| Clc1ccccc1C(c1ccccc1)(c1ccccc1)n1ccnc1 [Clotrimazole] | -81.6% | 20.9 µM |
| CN1CCN(CC1)\C2=N\C3=C(NC4=C2C=CC=C4)C=CC(=C3)Cl [Clozapine] | -99.6% | 20.9 µM |

| Compound | efficacy [1] | AC50 cell viability [2] |
| --- | --- | --- |
| O=C(c1ccc(F)c(F)c1Nc1ccc(I)cc1F)N1CC(O)([C@@H]2CCCCN2)C1 [Cobimetinib] | -105% | 1.86 µM |
| COC/1=C/C=C2\C(=C/C1=O)[C@H](CCC3=CC(=C(OC)C(=C23)OC)OC)NC(C)=O [Colchicine] | -59.9% | 0.0661 µM |
| CN1CCc2c(n(Cc3ccc(C(=O)NO)cc3)c3ccccc23)C1 [Compound 7] | -98.9% | 26.3 µM |
| O=[S+]([O-])(Nc1ccc(-c2cccnc2)c2cccnc12)c1cccc(C(F)(F)F)c1 [Compound 22d] | -73.3% | 4.17 µM |
| Cc1nc2c([nH]1)-c1ccccc1N(C(=O)c1ccc(NC(=O)c3ccccc3-c3ccccc3)cc1)CC2 [Conivaptan hydrochloride] | -45.3% | 20.9 µM |
| COC1=C(OCCCN2CCOCC2)C=CC\3=C1/N=C(/NC(=O)C4=CN=C(N)N=C4)N5CC/N=C35 [Copanlisib] | -57.4% | 0.0679 µM |
| C=C1C(=O)OC2/C=C(/C)CC/C=C(/C)CCC12 (stereo not drawn) [Costunolide] | -86.2% | 20.9 µM |
| C[C@H](NC(=O)CCC(F)(F)F)C(=O)N[C@@H]1C(=O)N(CCO)c2ncccc2-c2ccccc21 [Crenigacestat] | -44.7% | 0.332 µM |
| CC1(COc2ccc3c(c2)ncn3-c2ccc3cccc(N4CCC(N)CC4)c3n2)COC1 [Crenolanib] | -104% | 2.95 µM |
| C[C@@H](Oc1cc(-c2cnn(C3CCNCC3)c2)cnc1N)c1c(Cl)ccc(F)c1Cl [Crizotinib] | -100% | 4.17 µM |
| CC(C)(O)/C=C\C(=O)[C@](C)(O)[C@H]1[C@H](O)C[C@]2(C)[C@@H]3CC=C4[C@@H](C=C(O)C(=O)C4(C)C)[C@]3(C)C(=O)C[C@@]12C [Cucurbitacin I] | -77.1% | 0.166 µM |
| COc1cc(/C=C/C(=O)CC(=O)/C=C/c2ccc(O)c(OC)c2)ccc1O [Curcumin] | -68% | 4.17 µM |
| C[C@H]1CCC/C=C/C2C[C@H](O)C[C@H]2[C@H](O)/C=C/C(=O)O1 (stereo partly drawn) [Cyanein] | -91.1% | 0.235 µM |
| CN(C)CCC=C1C2=C(C=CC=C2)\C=C/C3=C1C=CC=C3 [Cyclobenzaprine hydrochloride] | -92.3% | 18.6 µM |
| OC[C@H]1O[C@@H]2[C@@H](OC\3=N\C(=N)\C=C/[N@@]23)[C@@H]1O [Cyclocytidine hydrochloride] | -59.3% | 0.186 µM |
| C[C@@H]1C[C@@H]([C@H](O)CC2CC(=O)NC(=O)C2)C(=O)[C@@H](C)C1 [Cycloheximide] | -68.6% | 0.468 µM |
| CN1CCC(CC1)=C2C3=C(C=CC=C3)\C=C/C4=C2C=CC=C4 [Cyproheptadine hydrochloride] | -81.9% | 23.5 µM |
| NC\1=N\C(=O)N(\C=C1)[C@@H]2O[C@H](CO)[C@@H](O)[C@@H]2O [Cytarabine] | -61.7% | 0.0742 µM |
| CCCCCCCCCCCCCC(=O)N[C@H](CO)[C@H](O)c1ccc([N+](=O)[O-])cc1 [D-NMAPPD] | -101% | 26.3 µM |
| ClC/1=C(NCCN2CCOCC2)/C(=O)C3=C(C=CC=N3)C1=O [DA-3003-1] | -90.7% | 5.9 µM |

| Compound | efficacy [1] | AC50 cell viability [2] |
| --- | --- | --- |
| Nc1cccc([S+](=O)([O-])N2CCCN([S+](=O)([O-])c3ccc4c(c3)OCCO4)CC2)c1 [DASA-58] | -59.9% | 14.8 µM |
| CNC(=O)c1cc(Oc2ccc(NC(=O)Nc3cc(C(C)(C)C)nn3-c3ccc4ncccc4c3)c(F)c2)ccn1 [DCC-2036] | -76% | 11.8 µM |
| CCCCCN(CCC12CC3CC(CC(C3)C1)C2)C(=O)NCCCc1ccncc1 [DE-096] | -90.2% | 16.6 µM |
| COc1cc([C@@H]2c3cc4c(cc3[C@@H](O)C3COC(=O)C32)OCO4)cc(OC)c1O (stereo partly drawn) [DMEP] | -52.3% | 0.235 µM |
| CN(C)/N=N/c1nc[nH]c1C(N)=O [Dacarbazine] | -45.8% | 10.5 µM |
| O=C(/C=C/c1ccc(CN(CCO)CCc2c[nH]c3ccccc23)cc1)NO [Dacinostat] | -89.1% | 0.0833 µM |
| COc1cc2ncnc(Nc3ccc(F)c(Cl)c3)c2cc1NC(=O)/C=C/CN1CCCCC1 [Dacomitinib] | -99.1% | 8.33 µM |
| CO[C@@H](C(=O)N1Cc2[nH]nc(NC(=O)c3ccc(N4CCN(C)CC4)cc3)c2C1)c1ccccc1 [Danusertib] | -71.4% | 1.66 µM |
| O=C(/C=C/c1cccnc1)NCCCCC1CCN(C(=O)c2ccccc2)CC1 [Daporinad] | -94.1% | 0.00525 µM |
| CC(O)c1cc(C(=O)N[C@@H](C)Cn2ccc(-c3ccc(C#N)c(Cl)c3)n2)n[nH]1 (stereo partly drawn) [Darolutamide (ODM-201)] | -38.4% | 16.6 µM |
| Cc1nc(Nc2ncc(C(=O)Nc3c(C)cccc3Cl)s2)cc(N2CCN(CCO)CC2)n1 [Dasatinib] | -81.1% | 14.8 µM |
| C[C@@H]1C[C@H]2[C@@H]3\C=C(C)/C4=C/C5=C(C[C@]4(C)[C@H]3[C@@H](O)C[C@]2(C)[C@@]1(O)C(=O)CO)C=N[N]5C6=CC=CC=C6 [Deacetyl cortivazol] | -121% | 26.3 µM |
| CC[C@@](C)(Nc1ccnc(-c2c[nH]c3ncccc23)n1)C(=O)NCC(F)(F)F [Decernotinib] | -56.7% | 20.9 µM |
| NC\1=N\C(=O)N(\C=N1)[C@H]2C[C@H](O)[C@@H](CO)O2 [Decitabine] | -42.1% | 9.34 µM |
| CNC(=O)c1ccc(Nc2ncc(C(F)(F)F)c(NCc3nccnc3N(C)[S+](C)(=O)[O-])n2)cc1 [Defactinib] | -71.4% | 1.86 µM |
| O=C(O)c1ccc(-n2nc(-c3ccccc3O)nc2-c2ccccc2O)cc1 [Deferasirox] | -92.9% | 13.2 µM |
| CC(=O)N(O)CCCCCNC(=O)CCC(=O)N(O)CCCCCNC(=O)CCC(=O)N(O)CCCCCN [Deferoxamine mesylate] | -95.9% | 9.34 µM |
| CCC[C@H](NC(=O)/C(C#N)=C/c1cccc(Br)n1)c1ccccc1 [Degrasyn] | -104% | 26.3 µM |
| COC1=CC2=C(C=C1OC)[C@H]3[C@@H](CO2)OC4=C(C=CC5=C4\C=C/C(C)(C)O5)C3=O [Deguelin] | -82.8% | 5.25 µM |

— the supplement of paper PMC10290057
